Laboratory results published in ChEMBL document CHEMBL3045379, “Synthesis and Fungicidal Activity of 3-1, 2, 4-Thiadiazolines” (J Pestic Sci, 1992).
Active and inactive are the calls of the source. The calls are words filed in the database; no cut-off is given here.

System: Pseudoperonospora cubensis
Assay: Fungicidal activity against Pseudoperonospora cubensis infected cucumber cv. Sagamihanjiro seedling assessed as inhibition of zoospore liberation from zoosporangia after 4 days by microscopic analysis in presence of cysteine
Format: functional, organism-based
Conditions: not given

Compound	inhibition
Cn1s/c(=N/c2ccc(Cl)cc2)nc1-c1ccccc1	inactive

System: not listed separately
Assay: Chemical stability of the compound in ethanol solution after 1 week
Format: physicochemical
Conditions: 168 h

Compound	Stability
Cn1s/c(=N/c2ccc(Cl)cc2)nc1-c1ccccc1	Stable

System: Pseudoperonospora cubensis
Assay: Fungicidal activity against Pseudoperonospora cubensis infected cucumber cv. Sagamihanjiro seedling assessed as inhibition of zoospore liberation from zoosporangia after 4 days by microscopic analysis
Format: functional, organism-based
Conditions: not given

Compound	inhibition
Cn1s/c(=N/c2ccc(Cl)cc2)nc1-c1ccccc1	Active

System: not listed separately
Assay: Chemical stability of the compound in THF solution after 1 day
Format: physicochemical
Conditions: 24 h

Compound	Stability
Cn1s/c(=N/c2ccc(Cl)cc2)nc1-c1ccccc1	Unstable

System: not listed separately
Assay: Chemical stability of the compound in acetonitrile solution after 1 day
Format: physicochemical
Conditions: 24 h

Compound	Stability
Cn1s/c(=N/c2ccc(Cl)cc2)nc1-c1ccccc1	Unstable

System: not listed separately
Assay: Chemical stability of the compound in acetone solution after 1 day
Format: physicochemical
Conditions: 24 h

Compound	Stability
Cn1s/c(=N/c2ccc(Cl)cc2)nc1-c1ccccc1	Unstable

System: Pseudoperonospora cubensis
Assay: Fungicidal activity against Pseudoperonospora cubensis infected in cucumber cv. Sagamihanjiro seedling assessed as reduction in leaf lesion after 4 days by pot test
Format: functional, organism-based
Conditions: not given

Compound	EC50
Clc1ccc(/N=c2\nc(-c3ccc(Cl)cc3)n(Cc3ccccc3)s2)cc1	43.3 ppm
Cn1s/c(=N/c2ccccc2-c2ccccc2)nc1-c1ccccc1	30.4 ppm
Cn1s/c(=N/c2ccc(Cl)cc2)nc1SCc1ccccc1	46.2 ppm
Cn1s/c(=N/c2cccc(Cl)c2Cl)nc1-c1ccc(Cl)cc1	179 ppm
Cc1ccc(/N=c2\nc(-c3ccc(Cl)cc3)n(C)s2)cc1	9.2 ppm
Cn1s/c(=N/c2cccc(Cl)c2)nc1-c1ccc(Cl)cc1	25.9 ppm
CN(c1ccccc1)c1n/c(=N\c2ccc(Cl)cc2)sn1C	37.5 ppm
COc1ccc(-c2n/c(=N\c3ccc(Cl)cc3)sn2C)cc1	132.7 ppm
CCCn1s/c(=N/c2ccc(Cl)cc2)nc1-c1ccccc1	9.9 ppm
Cn1s/c(=N/c2ccc(Cl)cc2)nc1-c1ccco1	8.4 ppm
CN(C)c1ccc(/N=c2\nc(-c3ccc(Cl)cc3)n(C)s2)cc1	141.5 ppm
CN(C)C(=O)n1s/c(=N/c2ccc(Cl)cc2)nc1-c1ccccc1	87.5 ppm
CN(C)c1n/c(=N\c2ccc(Cl)cc2)sn1C	52.5 ppm
Cn1s/c(=N/c2ccc(Cl)cc2)nc1C(Cl)(Cl)Cl	37 ppm
CCn1s/c(=N/c2cc(Cl)cc(Cl)c2)nc1-c1ccc(Cl)cc1	86.7 ppm
CCSc1n/c(=N\c2ccc(Cl)cc2)sn1C	36.2 ppm
Cn1s/c(=N/c2ccc(Cl)cc2)nc1-c1cccc(Cl)c1	25.2 ppm
Cc1ccc(-c2n/c(=N\c3ccc(Cl)cc3)sn2C)cc1	37.4 ppm
Cn1s/c(=N/C(=O)c2ccc(Cl)cc2)nc1-c1ccc(Cl)cc1	400 ppm
COc1ccc(/N=c2\nc(-c3ccc(Cl)cc3)n(C)s2)cc1	11 ppm
Clc1ccc(Nc2nc(-c3ccccc3)ns2)cc1	Not Active
CC1(C)Cn2s/c(=N/c3ccc(Cl)cc3)nc2S1	35.5 ppm
CSc1n/c(=N\c2ccc(Cl)cc2)sn1C	94.9 ppm
Cc1cccc(/N=c2\nc(-c3ccc(Cl)cc3)n(C)s2)c1	26.1 ppm
CCn1s/c(=N/c2cccc([N+](=O)[O-])c2)nc1-c1ccccc1	63.1 ppm
CCCc1ccc(/N=c2\nc(-c3ccc(Cl)cc3)n(C)s2)cc1	23.8 ppm

Compound	EC50
CCCn1s/c(=N/c2ccc(C)cc2)nc1-c1ccccc1	141.5 ppm
CCn1s/c(=N/c2ccc(Cl)cc2)nc1-c1ccccc1	13.6 ppm
COc1n/c(=N\c2ccc(Cl)cc2)sn1C	> 400 ppm
Cn1s/c(=N/c2ccc(Cl)cc2)nc1-c1cc(Cl)cc(Cl)c1	66.8 ppm
Cn1s/c(=N/c2ccccc2)nc1-c1ccc(Cl)cc1	23.4 ppm
Cc1cccc(/N=c2\nc(-c3ccc(Cl)cc3)n(C)s2)c1C	25 ppm
CCn1s/c(=N/c2ccc(Br)cc2)nc1-c1ccccc1	70.2 ppm
Cc1ccc(/N=c2\nc(-c3ccc(Cl)cc3)n(C)s2)cc1C	13.2 ppm
CCCCc1ccc(/N=c2\nc(-c3ccc(Cl)cc3)n(C)s2)cc1	30.4 ppm
Cn1s/c(=N/c2ccc(Cl)cc2)nc1-c1ccc([N+](=O)[O-])cc1	29.7 ppm
Cn1s/c(=N/c2ccc(I)cc2)nc1-c1ccccc1	100 ppm
Cn1s/c(=N/c2ccc(Cl)cc2)nc1-c1ccccc1	5.7 ppm
CC(C)c1n/c(=N\c2ccc(Cl)cc2)sn1C	252.7 ppm
CCc1n/c(=N\c2ccc(Cl)cc2)sn1C	352.6 ppm
Cn1s/c(=N/c2ccc(O)cc2)nc1-c1ccccc1	39.6 ppm
Cn1s/c(=N/c2ccc(Br)cc2)nc1-c1ccccc1	17.9 ppm
Cn1s/c(=N/c2ccc(Br)cc2)nc1-c1ccc(Cl)cc1	12 ppm
Cc1ccc(/N=c2\nc(-c3ccccc3)n(C)s2)cc1	60.2 ppm
Cn1s/c(=N/c2ccc(Br)cc2)nc1-c1ccc(Cl)cc1Cl	131.1 ppm
CCn1s/c(=N/c2ccc(Cl)cc2)nc1-c1ccc(Cl)cc1	80.4 ppm
Clc1ccc(/N=c2\nc3n(s2)CCS3)cc1	68.6 ppm
Cn1s/c(=N/c2ccc(Cl)cc2)nc1-c1ccc(Cl)c(Cl)c1	9.5 ppm
Cc1n/c(=N\c2ccc(Cl)cc2)sn1C	66.9 ppm
Cn1s/c(=N/c2ccc(Cl)c(Cl)c2)nc1-c1ccc(Cl)cc1	24.7 ppm
CCOC(=O)C1CN(c2ccc(Cl)cc2)/C(=N/C(=N/C)c2ccccc2)S1 (stereo not drawn)	92.8 ppm
Cn1s/c(=N/c2ccc(Nc3ccccc3)cc2)nc1-c1ccccc1	81 ppm

Compound	EC50
CCc1ccc(/N=c2\nc(-c3ccc(Cl)cc3)n(C)s2)cc1	21.8 ppm
C/N=C(/N=c1\snc(-c2ccccc2)n1-c1ccc(Cl)cc1)c1ccccc1	45.3 ppm
CCOc1n/c(=N\c2ccc(Cl)cc2)sn1C	308.1 ppm
Cn1s/c(=N/c2ccc(F)cc2)nc1-c1ccc(Cl)cc1	22.1 ppm
Cn1s/c(=N/c2ccc(-c3ccccc3)cc2)nc1-c1ccccc1	23.1 ppm
C/N=C(/N=c1\ssc(=S)n1-c1ccc(Cl)cc1)c1ccccc1	84.1 ppm
Cn1s/c(=N/c2ccc(Cl)cc2)nc1-c1ccc(Cl)cc1	7.2 ppm
Cc1cc(C)cc(/N=c2\nc(-c3ccc(Cl)cc3)n(C)s2)c1	26.4 ppm
Br.Cn1s/c(=N/C2CCCCC2)nc1-c1ccccc1	> 400 ppm
Cn1s/c(=N/c2ccc(Oc3ccc(Cl)cc3)cc2)nc1-c1ccccc1	31.9 ppm
C/N=C(/N=c1\sn(-c2ccccc2)c(=S)n1-c1ccc(Cl)cc1)c1ccccc1	33.6 ppm
Br.CC/N=c1\nc(-c2ccccc2)n(CC)s1	> 400 ppm
CC(C)n1s/c(=N/c2ccc(Cl)cc2)nc1-c1ccccc1	72.9 ppm
Cn1s/c(=N/c2ccc(Cl)cc2Cl)nc1-c1ccccc1	63.4 ppm
Cn1s/c(=N/c2ccc(C(C)(C)C)cc2)nc1-c1ccc(Cl)cc1	14 ppm
Cn1s/c(=N/c2ccc([N+](=O)[O-])cc2)nc1-c1ccccc1	> 400 ppm
Cn1s/c(=N/c2ccccc2)nc1-c1ccccc1	45.3 ppm
Cc1cccc(C)c1/N=c1\nc(-c2ccccc2)n(C)s1	128.1 ppm
Clc1ccc(/N=c2\nc(-c3ccc(Cl)cc3)n(-c3ccccc3)s2)cc1	> 400 ppm
Cn1s/c(=N/c2ccc(Cl)cc2)nc1Cc1ccccc1	79.1 ppm
Clc1ccc(/N=c2\nc3n(s2)CCCS3)cc1	> 400 ppm
CCN(CC)c1n/c(=N\c2ccc(Cl)cc2)sn1C	13.1 ppm
Cn1o/c(=N/c2ccc(Cl)cc2)nc1-c1ccc(Cl)cc1	> 400 ppm
Cn1s/c(=N/c2ccc(Cl)cc2)nc1-c1ccccc1Cl	11.6 ppm

Species on record: Homo sapiens
Assay: Inhibition of ADH (unknown origin) at 3 ug/ml after 1 hr
Conditions: not given

Compound	inhibition
Cn1s/c(=N/c2ccc(Cl)cc2)nc1-c1ccccc1	Active
